One series concerns the target T1, TIE2 (Homo sapiens, UniProt Q02763).
T1 construct: purchased BPS 40270
Briefly: Kinase inhibition, Mobility Shift Assay/IMAP, TIE2. Format: biochemical. From the text: (§1) This assay directly monitored the ability of compounds to inhibit kinase phosphorylation by measuring non-phosphorylated and phosphorylated substrates in kinase reactions by using Mobility Shift Assays/IMAP™ analysis.
(§2) Read the conversion ratio data on CaliperEZ Reader II. Convert conversion rates into inhibition ratio data.
(§3) “Min” indicates the readout of the control well without the addition of enzymes; and “Max” indicates the readout of the control well with the addition of DMSO Fit IC50 values with XL Fit excel add-in version […].
(§4) X indicates the log value of compound concentration, and Y indicates the inhibition ratio (% inhibition).

For the next series, the target named is VEGFR2 (Homo sapiens, UniProt P35968). Put plainly: Kinase inhibition, Mobility Shift Assay/IMAP, VEGFR2. In kind it is biochemical. Set-up: purchased Carna 08-191.
VEGFR2, sequence (P35968 790-1356 limits assumed): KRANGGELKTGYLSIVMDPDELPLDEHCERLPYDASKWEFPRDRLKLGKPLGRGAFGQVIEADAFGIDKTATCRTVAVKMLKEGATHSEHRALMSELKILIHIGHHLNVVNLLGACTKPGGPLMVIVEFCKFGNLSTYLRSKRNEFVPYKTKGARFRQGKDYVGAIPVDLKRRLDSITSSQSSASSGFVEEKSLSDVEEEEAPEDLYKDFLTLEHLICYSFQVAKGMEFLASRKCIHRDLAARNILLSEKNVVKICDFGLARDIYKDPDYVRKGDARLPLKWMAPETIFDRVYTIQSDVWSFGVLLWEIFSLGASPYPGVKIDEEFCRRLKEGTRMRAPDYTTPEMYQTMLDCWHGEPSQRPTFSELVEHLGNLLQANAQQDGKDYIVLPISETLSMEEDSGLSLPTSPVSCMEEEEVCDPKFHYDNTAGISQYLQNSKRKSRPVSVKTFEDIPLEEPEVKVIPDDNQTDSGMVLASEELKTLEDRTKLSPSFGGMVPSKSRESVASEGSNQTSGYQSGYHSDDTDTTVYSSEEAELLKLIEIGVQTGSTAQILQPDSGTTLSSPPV
Excerpt: as §1, §2, §3, §4

The target in the next series is T2, EGFR (Homo sapiens, UniProt P00533).
T2 construct: purchased Carna 08-115
T2 sequence (P00533 669-1210 limits assumed): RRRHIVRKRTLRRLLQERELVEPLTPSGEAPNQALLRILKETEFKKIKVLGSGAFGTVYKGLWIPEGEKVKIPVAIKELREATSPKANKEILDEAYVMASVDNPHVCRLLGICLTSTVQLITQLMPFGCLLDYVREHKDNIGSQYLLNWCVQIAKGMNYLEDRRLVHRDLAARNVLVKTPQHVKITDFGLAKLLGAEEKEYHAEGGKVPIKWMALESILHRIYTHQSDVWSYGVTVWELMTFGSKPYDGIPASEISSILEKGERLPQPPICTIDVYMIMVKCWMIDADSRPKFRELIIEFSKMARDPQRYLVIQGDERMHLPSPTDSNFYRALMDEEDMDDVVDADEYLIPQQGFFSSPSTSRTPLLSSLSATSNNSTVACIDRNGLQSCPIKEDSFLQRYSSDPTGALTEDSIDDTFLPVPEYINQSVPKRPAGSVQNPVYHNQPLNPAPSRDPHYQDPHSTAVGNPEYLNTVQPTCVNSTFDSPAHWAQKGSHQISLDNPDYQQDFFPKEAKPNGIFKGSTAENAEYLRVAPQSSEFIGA
Put plainly: Kinase inhibition, Mobility Shift Assay/IMAP, EGFR. In kind it is biochemical.
Excerpt: as §1, §2, §3, §4

Another series has as its system melanin. Put plainly: Binding capacity of compounds to melanin. Format: in vitro ADME, cuttlefish (Sepia officinalis). The settings on record: cuttlefish (Sepia officinalis), melanin suspension (1 mg/mL); 1 mg/mL melanin in PBS pH 7.4, 2 μM compound, 2 h at 37° C.; read-out: Fu % (percentage of free drug). From the text:
Pigmented eye tissues contain melanin in intracellular melanosomes. Drugs bind to melanin to varying degrees, ranging from non-binding to extensive binding. Therefore, melanin binding is an important feature that affects drug delivery and biodistribution in the eye. The binding capacity of the compound to the melanin must be considered in the development of ophthalmic drugs.
Melanin was derived from the melanin of cuttlefish (Sepia officinalis) and was commercially available from Sigma Aldrich (St Louis, MO).
First, prepare 1 mg/mL melanin suspension with PBS (pH 7.4). As a washing step for the matrix, centrifuge the suspended particles for 5 min at 3000 rpm. Resuspend the resulting particles in a fresh PBS buffer, heat to 37° C. over continuous shaking and incubate it for 1 h. Accurately pipette 2 μL of the test stock solution (0.1 mM) into 98 μL of melanin suspension (1 mg/mL) to achieve a final incubation concentration of 2 μM. Similarly, accurately pipette 2 μL of the stock solution (0.1 mM) to 98 μL of PBS buffer (containing 0.1% BSA) as a blank control sample. Incubate the samples in a shaker (80-90 rpm) for 2 h at 37° C. Then, centrifuge the samples at room temperature. Pipette 50 μL of the supernatant and add 50 μL of precipitant (containing an internal standard). After protein precipitation of all the above samples, centrifuge the samples to collect the supernatants, dilute the supernatants with water (if necessary) and inject them for analysis. At the same time, measure the positive controls, including the high-binding compounds Sunitinib and chloroquine and the low-binding compound celecoxib. Establish an LC-MS/MS method for determining compound concentrations, and calibrate the peak area ratio of analyte/internal standard (Analyte/AIS) in the measured sample by the dilution factor to take it as an alternative concentration for the sample for data processing. The binding rate (Fb) of a compound in melanin was calculated as: […]
Ctest was the concentration of the compound in the melanin-incubated sample or the peak area ratio of the test compound to the internal standard. Ccontrol was the concentration of the compound in the blank control sample or the peak area ratio of the test compound to the internal standard. […]

The next series concerns the target T3, VEGFR1 (Homo sapiens, UniProt P17948).
T3 construct: purchased Invitrogen PR6731B
Briefly: Kinase inhibition, Mobility Shift Assay/IMAP, VEGFR1. Format: biochemical.
Excerpt: as §1, §2, §3, §4

Bounds are passed on as bounds.

T1 sequence (Q02763 23-1124): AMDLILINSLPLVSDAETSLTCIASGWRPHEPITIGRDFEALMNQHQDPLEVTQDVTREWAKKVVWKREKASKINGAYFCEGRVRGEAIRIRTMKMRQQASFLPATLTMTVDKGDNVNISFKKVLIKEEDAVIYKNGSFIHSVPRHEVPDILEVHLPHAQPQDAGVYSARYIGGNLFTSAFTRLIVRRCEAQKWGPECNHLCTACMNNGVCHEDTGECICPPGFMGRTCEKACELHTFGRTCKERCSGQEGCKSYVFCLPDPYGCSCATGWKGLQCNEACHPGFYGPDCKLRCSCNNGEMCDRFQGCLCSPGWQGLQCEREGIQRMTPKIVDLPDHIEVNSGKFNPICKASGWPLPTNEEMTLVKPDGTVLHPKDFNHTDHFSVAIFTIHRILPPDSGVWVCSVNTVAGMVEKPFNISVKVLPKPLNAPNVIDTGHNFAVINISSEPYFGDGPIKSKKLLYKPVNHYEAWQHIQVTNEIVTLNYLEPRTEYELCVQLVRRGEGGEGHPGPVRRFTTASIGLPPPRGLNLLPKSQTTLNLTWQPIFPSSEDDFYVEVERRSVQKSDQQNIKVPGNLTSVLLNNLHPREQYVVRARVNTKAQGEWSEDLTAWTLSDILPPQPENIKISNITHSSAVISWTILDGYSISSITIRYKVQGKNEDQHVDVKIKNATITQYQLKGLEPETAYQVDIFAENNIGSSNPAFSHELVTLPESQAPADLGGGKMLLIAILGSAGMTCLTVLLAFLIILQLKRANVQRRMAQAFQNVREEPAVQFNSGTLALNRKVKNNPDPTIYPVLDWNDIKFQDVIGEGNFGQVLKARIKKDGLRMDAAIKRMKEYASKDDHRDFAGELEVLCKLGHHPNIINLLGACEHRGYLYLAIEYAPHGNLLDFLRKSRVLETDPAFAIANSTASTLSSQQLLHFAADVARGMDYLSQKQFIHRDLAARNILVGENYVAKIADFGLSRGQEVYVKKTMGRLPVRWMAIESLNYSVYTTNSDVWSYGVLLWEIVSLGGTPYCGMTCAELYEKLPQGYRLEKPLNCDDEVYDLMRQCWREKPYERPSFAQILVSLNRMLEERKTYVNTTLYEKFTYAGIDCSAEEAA
T3 sequence (P17948 27-1338): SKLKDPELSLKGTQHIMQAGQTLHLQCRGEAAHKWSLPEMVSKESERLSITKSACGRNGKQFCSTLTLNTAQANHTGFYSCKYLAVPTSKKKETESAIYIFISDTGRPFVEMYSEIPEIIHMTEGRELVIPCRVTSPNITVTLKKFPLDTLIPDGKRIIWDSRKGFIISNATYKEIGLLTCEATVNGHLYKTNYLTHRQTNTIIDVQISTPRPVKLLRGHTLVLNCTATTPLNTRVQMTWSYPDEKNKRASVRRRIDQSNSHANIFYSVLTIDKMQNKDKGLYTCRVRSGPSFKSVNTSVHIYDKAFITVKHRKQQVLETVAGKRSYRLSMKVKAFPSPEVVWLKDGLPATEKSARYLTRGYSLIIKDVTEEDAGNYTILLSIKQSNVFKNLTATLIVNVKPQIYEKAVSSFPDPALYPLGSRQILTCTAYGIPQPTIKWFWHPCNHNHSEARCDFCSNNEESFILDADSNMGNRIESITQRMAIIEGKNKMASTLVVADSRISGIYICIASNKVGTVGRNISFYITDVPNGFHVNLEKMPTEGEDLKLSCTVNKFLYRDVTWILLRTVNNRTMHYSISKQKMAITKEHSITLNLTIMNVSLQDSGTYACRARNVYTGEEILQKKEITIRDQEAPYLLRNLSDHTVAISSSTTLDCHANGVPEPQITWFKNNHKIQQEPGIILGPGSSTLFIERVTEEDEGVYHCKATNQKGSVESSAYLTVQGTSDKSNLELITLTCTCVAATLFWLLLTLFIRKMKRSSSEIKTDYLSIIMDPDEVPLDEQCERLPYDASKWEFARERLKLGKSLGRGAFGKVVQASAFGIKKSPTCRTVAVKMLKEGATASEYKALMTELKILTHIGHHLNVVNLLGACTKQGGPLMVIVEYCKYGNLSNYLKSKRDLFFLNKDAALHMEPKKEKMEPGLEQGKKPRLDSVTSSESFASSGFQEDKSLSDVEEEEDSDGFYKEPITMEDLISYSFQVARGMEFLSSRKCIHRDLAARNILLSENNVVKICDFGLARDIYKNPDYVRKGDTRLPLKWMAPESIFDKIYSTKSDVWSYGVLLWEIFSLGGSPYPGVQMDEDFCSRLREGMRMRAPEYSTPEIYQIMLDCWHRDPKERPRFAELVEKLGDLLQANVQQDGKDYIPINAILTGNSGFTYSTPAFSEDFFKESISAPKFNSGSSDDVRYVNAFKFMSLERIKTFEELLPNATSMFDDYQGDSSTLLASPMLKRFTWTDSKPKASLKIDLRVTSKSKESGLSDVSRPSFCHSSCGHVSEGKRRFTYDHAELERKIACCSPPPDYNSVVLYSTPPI

Usually IC50 stands for the midpoint of a concentration-inhibition curve. For `NC(=O)c1c(OCc2ccc3c(c2)CCO3)nsc1NC(=O)NCCCCN1CCCC1` [Compound T044, 3-((2,3-dihydrobenzofuran-5-yl)methoxy)-5-(3-(4-(pyrrolidin-1-yl)butyl)ureido)isothiazole-4-carboxamide], the IC50 on TIE2 was determined as 1640 nM; on VEGFR2 it was 128 nM; on EGFR, 10000 nM.
For the compound `CCNC(=O)c1cccc(COc2nsc(NC(=O)NCCCCN3CCCC3)c2C(N)=O)c1` [Compound T058, 3-((3-(ethylcarbamoyl)benzyl)oxy)-5-(3-(4-(pyrrolidin-1-yl)butyl)ureido)isothiazole-4-carboxamide], the fraction unbound at 2 h, 2 μM in the series with melanin stood at 0.0225. Moreover, the IC50 is 20.9 nM at VEGFR2, greater than 60000 nM on EGFR and 30 nM on VEGFR1.
`NC(=O)c1c(OCc2cccc(-n3cccn3)c2)nsc1NC(=O)NCCCCN1CCCC1` [Compound T068, 3-((3-(1H-pyrazol-1-yl)benzyl)oxy)-5-(3-(4-(pyrrolidin-1-yl)butyl)ureido)isothiazole-4-carboxamide]: the results for the IC50 at TIE2, on VEGFR2 and at EGFR were 1610 nM, 171 nM and 4410 nM, respectively.
Take `COc1ccc(F)c(COc2nsc(NC(=O)NCCCCN3CCCC3)c2C(N)=O)c1` [Compound T092, 3-[(2-fluoro-5-methoxy-phenyl)methoxy]-5-(4-pyrrolidin-1-ylbutylcarbamoylamino)isothiazole-4-carboxamide]: in the series with melanin, the fraction unbound at 2 h, 2 μM is 0.031. Further, the IC50 on TIE2 turned out to be 596 nM; on VEGFR2 it was 17.2 nM.
As for `COc1cc(COc2nsc(NC(=O)NCCCCN3CCCC3)c2C(N)=O)c(F)c(OC)c1` [Compound T094, 3-[(2-fluoro-3,5-dimethoxy-phenyl)methoxy]-5-(4-pyrrolidin-1-ylbutylcarbamoylamino)isothiazole-4-carboxamide], the fraction unbound at 2 h, 2 μM in the series on melanin came to 0.0481. The values for the IC50 at TIE2, at VEGFR2 and on EGFR were 413 nM, 9.1 nM and greater than 60000 nM, respectively.
Consider `CN1CC[C@@H](CCNC(=O)Nc2snc(OCc3cc4c(cc3F)CCO4)c2C(N)=O)C1` [Compound T102, 3-[(5-fluoro-2,3-dihydrobenzofuran-6-yl)methoxy]-5-[2-[(3R)-1-methylpyrrolidin-3-yl]ethylcarbamoylamino]isothiazole-4-carboxamide], for which the fraction unbound at 2 h, 2 μM in the series with melanin stood at 0.0235. Further, the IC50 on TIE2 was 142 nM; on VEGFR2 it was 5.5 nM; on EGFR, 9890 nM.
Take `COc1ccc(F)c(COc2nsc(NC(=O)NCCCN3CCN(C)CC3)c2C(N)=O)c1F` [Compound T107, 3-[(2,6-difluoro-3-methoxy-phenyl)methoxy]-5-[3-(4-methylpiperazin-1-yl)propylcarbamoylamino]isothiazole-4-carboxamide]: the fraction unbound at 2 h, 2 μM in the series with melanin was found to be 0.0403. In addition, the figures for the IC50 at TIE2, on VEGFR2 and on EGFR were 124 nM, 8.57 nM and 9140 nM, respectively.
As for `NC(=O)c1c(OCc2cc(C(=O)NC3CC3)ccc2F)nsc1NC(=O)NCCC1CCN(CCF)CC1` [Compound T108, 3-[[5-(cyclopropylcarbamoyl)-2-fluoro-phenyl]methoxy]-5-[2-[1-(2-fluoroethyl)-4-piperidyl]ethylcarbamoylamino]isothiazole-4-carboxamide], the fraction unbound at 2 h, 2 μM with melanin worked out at 0.0271. The IC50 was 621 nM at TIE2 and 0.72 nM at VEGFR2.
For `COc1ccc(F)c(COc2nsc(NC(=O)NCCCN3CC[C@H](F)C3)c2C(N)=O)c1F` [Compound T120, 3-[(2,6-difluoro-3-methoxy-phenyl)methoxy]-5-[3-[(3S)-3-fluoropyrrolidin-1-yl]propylcarbamoylamino]isothiazole-4-carboxamide], the fraction unbound at 2 h, 2 μM in the series with melanin turned out to be 0.0173. Besides, the IC50 on TIE2 came out at 397 nM; on VEGFR2, 47 nM; on EGFR, 40700 nM.
As for `COc1ccc(F)c(COc2nsc(NC(=O)NCCCN3CC[C@@H](F)C3)c2C(N)=O)c1F` [Compound T121, 3-[(2,6-difluoro-3-methoxy-phenyl)methoxy]-5-[3-[(3R)-3-fluoropyrrolidin-1-yl]propylcarbamoylamino]isothiazole-4-carboxamide], the results for the IC50 at TIE2, on VEGFR2 and at EGFR were 230 nM, 40 nM and 17200 nM, respectively.
Regarding `COc1ccc(F)c(COc2nsc(NC(=O)NCCCCN3CCC(F)CC3)c2C(N)=O)c1F` [Compound T125, 3-[(2,6-difluoro-3-methoxy-phenyl)methoxy]-5-[4-(4-fluoro-1-piperidyl)butylcarbamoylamino]isothiazole-4-carboxamide], the fraction unbound at 2 h, 2 μM in the series with melanin was determined as 0.0402. Further, the IC50 on TIE2 turned out to be 161 nM; on VEGFR2, 13.5 nM; on EGFR it was 9710 nM.
Turning to `COc1ccc(F)c(COc2nsc(NC(=O)NCCCCN3CCC(F)(F)CC3)c2C(N)=O)c1F` [Compound T130, 3-[(2,6-difluoro-3-methoxy-phenyl)methoxy]-5-[4-(4,4-difluoro-1-piperidyl)butylcarbamoylamino]isothiazole-4-carboxamide], the fraction unbound at 2 h, 2 μM with melanin is 0.0709. The results for the IC50 on TIE2, at VEGFR2 and on EGFR were 471 nM, 41 nM and 13700 nM, respectively.
As for `COc1ccc(F)c(COc2nsc(NC(=O)NCCCCN3CCOCC3)c2C(N)=O)c1F` [Compound T132, 3-[(2,6-difluoro-3-methoxy-phenyl)methoxy]-5-(4-morpholinobutylcarbamoylamino)isothiazole-4-carboxamide], in the series with melanin, the fraction unbound at 2 h, 2 μM was determined as 0.0363. Also, the IC50 came to 163 nM on TIE2, 14.7 nM at VEGFR2 and 19200 nM at EGFR.
For `COc1cc(OC)c(F)c(COc2nsc(NC(=O)NCCCCN3CC[C@@H](O)C3)c2C(N)=O)c1F` [Compound T135, 3-[(2,6-difluoro-3,5-dimethoxy-phenyl)methoxy]-5-[4-[(3R)-3-hydroxypyrrolidin-1-yl]butylcarbamoylamino]isothiazole-4-carboxamide], in that order: 0.02, 97 nM, 1.9 nM and greater than 60000 nM.
As to `CN1CCC(CCNC(=O)Nc2snc(OCc3cc(C(=O)NC4CC4)ccc3Cl)c2C(N)=O)CC1` [Compound T139, 3-[[2-chloro-5-(cyclopropylcarbamoyl)phenyl]methoxy]-5-[2-(1-methyl-4-piperidyl)ethylcarbamoylamino]isothiazole-4-carboxamide], the IC50 at TIE2 is 366 nM; on VEGFR2, 0.41 nM; on EGFR, 10100 nM.
In the case of `COc1ccc(Cl)c(COc2nsc(NC(=O)NCCCCN3CCCC3)c2C(N)=O)c1F` [Compound T146], the IC50 stood at 739 nM on TIE2, 10.5 nM on VEGFR2 and 26100 nM at EGFR.
Take `NC(=O)c1c(OCc2cc(C(=O)NC3CC3)ccc2F)nsc1NC(=O)NCCCN1CCN(C2CC2)CC1` [Compound T158, 3-[[5-(cyclopropylcarbamoyl)-2-fluoro-phenyl]methoxy]-5-[3-(4-cyclopropylpiperazin-1-yl)propylcarbamoylamino]isothiazole-4-carboxamide]: the results for the half-maximal inhibitory concentration (IC50) at TIE2, at VEGFR2 and at EGFR were 5380 nM, 1.05 nM and 9840 nM, respectively.
In the case of `NC(=O)c1c(OCc2cc(C(=O)NC3CC3)ccc2Cl)nsc1NC(=O)NCCCN1CC[C@H](F)C1` [Compound T166, 3-[[2-chloro-5-(cyclopropylcarbamoyl)phenyl]methoxy]-5-[3-[(3S)-3-fluoropyrrolidin-1-yl]propylcarbamoylamino]isothiazole-4-carboxamide], the results for the IC50 on TIE2, on VEGFR2 and at EGFR were 1740 nM, 0.45 nM and 15600 nM, respectively.
As for `CC(C)(C)[Si](C)(C)OCCCNC(=O)Nc1snc(OCc2cc(C(=O)NC3CC3)ccc2F)c1C(N)=O` [Compound T169, 5-[3-[tert-butyl(dimethyl)silyl]oxypropylcarbamoylamino]-3-[[5-(cyclopropylcarbamoyl)-2-fluoro-phenyl]methoxy]isothiazole-4-carboxamide], the IC50 at TIE2 was greater than 60000 nM; at VEGFR2, 16.4 nM; on EGFR, greater than 60000 nM.

The values are drawn from patent US20260217698A1 (BEYANG THERAPEUTICS CO., LTD., priority 2022, published 2026).
